Assays:
[1] = system: IGFBP-1 in HepG2 cells; assay: IGFBP-1 gene expression and secretion in HepG2 cells, dose and time response
[2] = system: IGFBP-1 in rat primary hepatocytes; assay: IGFBP-1 synthesis in rat primary hepatocytes (Western blot); type: cell-based
[3] = system: PRL-1 and Apolipoprotein AIV; assay: Northern blot validation of Atlas microarray results in liver biopsies; type: in vivo, rat; conditions: TAA vs TAA plus halofuginone
[4] = system: IGFBP-1 in HepG2, Huh-7, Hep3B, Det551, ROS and HSC cells; assay: IGFBP-1 synthesis in various cell types (Northern and Western blot); type: cell-based, human; rat; conditions: 50 nM halofuginone, serum-free medium, hepatocyte lines vs fibroblasts, osteoblasts
[5] = system: rats with TAA-induced liver fibrosis
[6] = system: collagen α1(I) gene expression; conditions: skin fibroblasts in culture, incl. from scleroderma or cGVHD patients; cited from earlier work
[7] = system: rats insulted with dimethylnitrosamine (DMN) or thioacetamide (TAA); conditions: cited from earlier work
[8] = system: HepG2 cells; assay: HepG2 cell proliferation (cell number); conditions: 24 h, halofuginone at concentration that affect IGFBP-1 synthesis
[9] = system: IGFBP-3 mRNA; assay: Northern blot of liver biopsies with IGFBP-3 probe
[10] = system: stellate cells (HSC-T6); assay: Stellate cell motility assay (phagokinetic tracks); conditions: conditioned medium of HepG2 treated with 50 nM halofuginone (contains IGFBP-1) added to HSC
[11] = system: IGFBP-1 gene expression; assay: Northern blot and in situ hybridization of liver biopsies with IGFBP-1 probe
[12] = system: TAA-induced cirrhotic liver; assay: Liver regeneration after 70% partial hepatectomy in TAA-induced cirrhotic rats

C[C@@H]1C[C@@H]([C@H](O)CC2CC(=O)NC(=O)C2)C(=O)[C@@H](C)C1 [cyclohexamide]
effect on halofuginone-dependent increase in IGFBP-1 gene expression ([1]; 10 μg/ml cyclohexamide with 50 nM halofuginone, 24 h): annulled

insulin: insulin, comparator incubated with rat primary hepatocytes
IGFBP-1 synthesis (Western blot) ([2]; insulin, 24 h (10 nM, 100 nM elsewhere in the source)): reduction in IGFBP-1 synthesis

O=C(CC1NCCC[C@H]1O)Cn1cnc2cc(Br)c(Cl)cc2c1=O (stereo in doubt) [halofuginone, 7-bromo-6-chloro-3-[3-(3-hydroxy-2-piperidinyl)-2-oxopropyl]-4(3H)-quinazolinone]
PRL-1 and Apolipoprotein AIV expression by Northern blotting [3]: confirmed the Atlas microarray findings | cell types responding with IGFBP-1 gene expression and synthesis [4]: Only cells of the hepatocyte origin demonstrated increased IGFBP-1 gene expression and synthesis | IGFBP-1 synthesis (Western blot) ([2]; halofuginone 1 nM, 24 h): increased the synthesis of IGFBP-1 | Ishak staging of fibrosis (grade) ([5]; TAA 200 mg/kg twice weekly plus halofuginone 5 ppm in the diet, 4 weeks, TAA alone grade 5-6): 1-2 | αSMA-positive (activated) stellate cells ([5]; TAA plus halofuginone given orally (5 ppm in diet), 4 weeks, immunohistochemistry): only traces | collagen level (Sirius red) ([5]; TAA plus halofuginone, 4 weeks): low levels of collagen | level of TIMP-2 ([5]; TAA plus halofuginone, 4 weeks, compared with TAA-treated rats): reduced | collagen α1(I) gene expression by remaining stellate cells ([5]; TAA plus halofuginone, 4 weeks, in situ hybridization): low levels | ECM, collagen, αSMA stellate cells, collagen α1(I) expression, TIMP-2 ([5]; rat, in vivo): No changes | collagen α1(I) gene expression and collagen production [6]: attenuated | fibrotic condition ([7]; given to rats with established fibrosis): almost complete resolution | HSC activation, increase in collagen α1(I) gene expression and collagen deposition ([7]; rats insulted with DMN or TAA): prevent HSC activation and abolish the increase in collagen α1(I) gene expression and collagen deposition | cell proliferation (cell number) [8]: significant reduction in cell proliferation | IGFBP-3 mRNA levels ([9]; after 1 week of treatment, any of the groups): No changes | effect on TAA-induced increase in IGFBP-3 level ([9]; after 2 and 4 weeks): partially prevented | IGFBP-3 mRNA levels ([9]; halofuginone alone, any time-points examined): no effect | HSC cell motility (track area) [10]: significant inhibition in cell motility | effect on TAA-induced down-regulation of IGFBP-1 gene expression (Northern blot) ([11]; after 2 and 4 weeks of treatment): prevented the TAA-induced down-regulation | effect on TAA-induced reduction in IGFBP-1 gene expression (Northern blot) ([11]; after one week of TAA treatment): without any effect | level of IGFBP-1 mRNA (Northern blot) ([11]; halofuginone alone): slight effect | IGFBP-1 gene expression by in situ hybridization, TAA-induced decrease ([11]; liver sections after 4 weeks, TAA plus halofuginone): prevented | IGFBP-1 gene expression (Northern blot) ([1]; 10 nM halofuginone, 24 h, further increase at higher concentrations, no expression without halofuginone): increased IGFBP-1 gene expression | time after halofuginone treatment at which increased IGFBP-1 gene expression was observed ([1]; 50 nM halofuginone): 6 h | time after which IGFBP-1 content in the conditioned media increased ([1]; 50 nM halofuginone): 10 to 15 h | IGFBP-1 in conditioned medium after halofuginone removal ([1]; 50 nM halofuginone for 11 h, washed, fresh medium for additional 13 h, compared with untreated cells): high levels of IGFBP-1 | incubation time needed for increase in IGFBP-1 secretion ([1]; 50 nM halofuginone, medium replaced, IGFBP-1 detected 23 h later): one hour of incubation with halofuginone was sufficient | concentration at which an increase in the level of IGFBP-1 in conditioned medium starts (Western blot) ([1]; HepG2, 24 h): ≥ 50 nM | PCNA labeling index ([12]; eight weeks of halofuginone after TAA, 48 hours after 70% PHx, untreated animals 18.8±2.9): 31.4±6.4 | restituted liver mass ([12]; eight weeks of halofuginone in diet after TAA, 48 hours after 70% PHx, control food group 13.7±4.5, p<0.05): 24.2±5.7% | liver Ishak staging ([12]; halofuginone treatment of TAA cirrhotic rats): decrease

Source: patent publication US20060258692A1, “Quinazolinone compositions for regulation of gene expression related to pathological processes” (priority 2002, published 2006)
